Measurements reported in publication PMC5513037, “Examining the influence of specificity ligands and ATP-competitive ligands on the overall effectiveness of bivalent kinase inhibitors” (Proteome Science, 2017).

Key:
Assay in all cases: KAM-matrix competition in K562 lysate;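 on 0.001 uM KAM: median log10 fold change of treatment over DMSO control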;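 on 0.01 uM KAM: median log10 fold change of treatment over DMSO control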;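 on 0.1 uM KAM: median log10 fold change of treatment over DMSO control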;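 on 1 uM KAM: median log10 fold change of treatment over DMSO control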;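 on 10 uM KAM: median log10 fold change of treatment over DMSO control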
Format in all cases: binding
HIPK1 = molecular target: T1, HIPK1 (Homo sapiens, UniProt Q86Z02)
T1 construct: endogenous in cells; host or cells: K562
Experimental: (§1) Supplement 12953_2017_125_MOESM1_ESM.zip/MS_Supp Info.xlsx, sheet "KAM" | column: 10 uM KAM; 1 uM KAM; 0.1 uM KAM; 0.01 uM KAM; 0.001 uM KAM; RB50

LATS2 = molecular target: T2, LATS2 (Homo sapiens, UniProt Q9NRM7)
T2 construct: endogenous in cells; host or cells: K562
T2 sequence (Q9NRM7 1-1088): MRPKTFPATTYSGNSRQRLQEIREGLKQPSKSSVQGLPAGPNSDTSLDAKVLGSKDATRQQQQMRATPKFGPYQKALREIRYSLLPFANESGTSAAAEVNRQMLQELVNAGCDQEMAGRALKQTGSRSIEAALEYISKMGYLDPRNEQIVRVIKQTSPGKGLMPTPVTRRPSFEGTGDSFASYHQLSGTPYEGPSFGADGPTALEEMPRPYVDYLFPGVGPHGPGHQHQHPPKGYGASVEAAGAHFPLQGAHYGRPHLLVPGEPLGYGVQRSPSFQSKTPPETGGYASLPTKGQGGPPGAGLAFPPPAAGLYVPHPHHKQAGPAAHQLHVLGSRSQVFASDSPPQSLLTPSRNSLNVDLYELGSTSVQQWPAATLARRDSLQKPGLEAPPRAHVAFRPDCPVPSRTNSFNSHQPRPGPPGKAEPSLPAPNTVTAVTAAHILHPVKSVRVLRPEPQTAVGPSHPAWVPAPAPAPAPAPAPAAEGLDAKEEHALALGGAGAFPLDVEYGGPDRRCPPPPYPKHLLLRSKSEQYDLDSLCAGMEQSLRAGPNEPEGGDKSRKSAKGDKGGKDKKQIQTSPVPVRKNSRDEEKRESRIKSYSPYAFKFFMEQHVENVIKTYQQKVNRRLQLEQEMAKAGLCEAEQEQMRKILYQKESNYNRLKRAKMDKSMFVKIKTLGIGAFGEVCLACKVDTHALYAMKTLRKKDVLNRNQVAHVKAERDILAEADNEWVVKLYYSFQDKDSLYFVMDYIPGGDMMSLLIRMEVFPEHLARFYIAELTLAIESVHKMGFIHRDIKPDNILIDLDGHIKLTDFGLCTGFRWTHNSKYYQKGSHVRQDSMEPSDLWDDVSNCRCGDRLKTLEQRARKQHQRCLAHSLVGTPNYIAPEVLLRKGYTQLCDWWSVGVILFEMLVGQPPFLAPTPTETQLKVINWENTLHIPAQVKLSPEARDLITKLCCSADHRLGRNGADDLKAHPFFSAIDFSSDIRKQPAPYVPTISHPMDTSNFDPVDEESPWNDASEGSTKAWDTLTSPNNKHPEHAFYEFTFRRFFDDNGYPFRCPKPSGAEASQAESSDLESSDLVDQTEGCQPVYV
Experimental: as §1

MAP3K1 = molecular target: T3, MAP3K1 (Homo sapiens, UniProt Q13233)
T3 construct: endogenous in cells; host or cells: K562 cell lysate
Experimental: as §1

PBK = molecular target: T4, PBK (Homo sapiens, UniProt Q96KB5);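 on 0.001 uM KAM: median log10 fold change of treatment over DMSO control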;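 on 0.01 uM KAM: median log10 fold change of treatment over DMSO control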;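 on 0.1 uM KAM: median log10 fold change of treatment over DMSO control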;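 on 1 uM KAM: median log10 fold change of treatment over DMSO control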;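 on 10 uM KAM: median log10 fold change of treatment over DMSO control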
T4 construct: endogenous in cells; host or cells: K562
T4 sequence (Q96KB5 1-322): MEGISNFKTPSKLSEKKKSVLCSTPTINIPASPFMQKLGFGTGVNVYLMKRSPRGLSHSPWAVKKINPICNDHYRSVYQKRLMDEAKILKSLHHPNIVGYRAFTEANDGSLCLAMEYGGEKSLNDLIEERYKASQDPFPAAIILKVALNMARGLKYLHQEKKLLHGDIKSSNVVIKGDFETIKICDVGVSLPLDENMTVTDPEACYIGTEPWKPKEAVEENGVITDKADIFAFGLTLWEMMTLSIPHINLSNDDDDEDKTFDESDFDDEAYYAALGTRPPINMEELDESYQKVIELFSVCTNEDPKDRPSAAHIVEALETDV
Experimental: as §1

TRRAP = molecular target: T5, TRRAP (Homo sapiens, UniProt Q9Y4A5);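 on 0.001 uM KAM: median log10 fold change of treatment over DMSO control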;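 on 0.01 uM KAM: median log10 fold change of treatment over DMSO control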;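 on 0.1 uM KAM: median log10 fold change of treatment over DMSO control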;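 on 1 uM KAM: median log10 fold change of treatment over DMSO control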;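 on 10 uM KAM: median log10 fold change of treatment over DMSO control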
T5 construct: endogenous in cells; host or cells: K562
Experimental: as §1

[1] = read-out: RB50 (the source's name)
[2] = KAM 0.001-10 uM, read-out: RB50 (the source's name)

T3 sequence (Q13233 whole entry): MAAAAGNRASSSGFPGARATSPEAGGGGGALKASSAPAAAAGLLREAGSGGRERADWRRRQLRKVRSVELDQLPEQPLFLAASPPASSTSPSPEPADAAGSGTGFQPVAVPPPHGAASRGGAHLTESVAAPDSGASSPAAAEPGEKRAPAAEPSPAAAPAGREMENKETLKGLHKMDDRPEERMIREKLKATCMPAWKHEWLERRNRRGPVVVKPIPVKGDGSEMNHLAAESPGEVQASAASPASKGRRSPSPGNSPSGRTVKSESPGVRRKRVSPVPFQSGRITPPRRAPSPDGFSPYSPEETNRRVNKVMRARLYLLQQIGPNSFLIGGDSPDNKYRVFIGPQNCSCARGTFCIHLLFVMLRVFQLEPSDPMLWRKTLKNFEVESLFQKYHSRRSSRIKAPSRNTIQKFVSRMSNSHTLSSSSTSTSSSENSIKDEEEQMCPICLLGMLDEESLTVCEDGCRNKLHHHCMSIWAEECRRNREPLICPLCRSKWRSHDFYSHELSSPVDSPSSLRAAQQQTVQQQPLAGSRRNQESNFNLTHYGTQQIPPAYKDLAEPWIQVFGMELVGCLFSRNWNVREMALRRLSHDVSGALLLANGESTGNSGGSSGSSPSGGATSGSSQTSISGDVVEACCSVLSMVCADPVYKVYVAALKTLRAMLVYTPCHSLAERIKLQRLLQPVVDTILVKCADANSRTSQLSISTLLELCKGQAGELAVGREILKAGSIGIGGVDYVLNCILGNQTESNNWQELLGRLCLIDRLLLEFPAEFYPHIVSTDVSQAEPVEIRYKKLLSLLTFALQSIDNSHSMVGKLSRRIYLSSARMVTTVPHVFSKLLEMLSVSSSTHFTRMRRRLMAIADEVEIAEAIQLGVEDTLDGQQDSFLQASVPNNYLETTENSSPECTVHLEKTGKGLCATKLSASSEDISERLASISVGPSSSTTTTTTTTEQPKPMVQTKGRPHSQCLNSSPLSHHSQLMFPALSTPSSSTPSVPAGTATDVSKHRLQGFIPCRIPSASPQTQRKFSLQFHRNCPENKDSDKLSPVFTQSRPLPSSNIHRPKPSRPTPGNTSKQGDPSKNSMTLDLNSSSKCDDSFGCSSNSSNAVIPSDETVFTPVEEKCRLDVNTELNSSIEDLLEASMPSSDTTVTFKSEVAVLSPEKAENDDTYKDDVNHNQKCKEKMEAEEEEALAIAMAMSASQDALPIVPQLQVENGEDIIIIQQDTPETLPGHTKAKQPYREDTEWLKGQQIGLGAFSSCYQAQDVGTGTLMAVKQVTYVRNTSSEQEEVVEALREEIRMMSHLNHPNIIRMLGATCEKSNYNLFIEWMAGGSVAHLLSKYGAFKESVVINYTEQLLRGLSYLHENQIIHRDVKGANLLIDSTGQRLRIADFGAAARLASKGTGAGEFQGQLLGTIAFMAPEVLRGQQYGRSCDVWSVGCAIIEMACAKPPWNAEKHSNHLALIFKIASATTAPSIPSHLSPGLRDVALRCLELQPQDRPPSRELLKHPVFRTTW
T1 sequence (Q86Z02 whole entry): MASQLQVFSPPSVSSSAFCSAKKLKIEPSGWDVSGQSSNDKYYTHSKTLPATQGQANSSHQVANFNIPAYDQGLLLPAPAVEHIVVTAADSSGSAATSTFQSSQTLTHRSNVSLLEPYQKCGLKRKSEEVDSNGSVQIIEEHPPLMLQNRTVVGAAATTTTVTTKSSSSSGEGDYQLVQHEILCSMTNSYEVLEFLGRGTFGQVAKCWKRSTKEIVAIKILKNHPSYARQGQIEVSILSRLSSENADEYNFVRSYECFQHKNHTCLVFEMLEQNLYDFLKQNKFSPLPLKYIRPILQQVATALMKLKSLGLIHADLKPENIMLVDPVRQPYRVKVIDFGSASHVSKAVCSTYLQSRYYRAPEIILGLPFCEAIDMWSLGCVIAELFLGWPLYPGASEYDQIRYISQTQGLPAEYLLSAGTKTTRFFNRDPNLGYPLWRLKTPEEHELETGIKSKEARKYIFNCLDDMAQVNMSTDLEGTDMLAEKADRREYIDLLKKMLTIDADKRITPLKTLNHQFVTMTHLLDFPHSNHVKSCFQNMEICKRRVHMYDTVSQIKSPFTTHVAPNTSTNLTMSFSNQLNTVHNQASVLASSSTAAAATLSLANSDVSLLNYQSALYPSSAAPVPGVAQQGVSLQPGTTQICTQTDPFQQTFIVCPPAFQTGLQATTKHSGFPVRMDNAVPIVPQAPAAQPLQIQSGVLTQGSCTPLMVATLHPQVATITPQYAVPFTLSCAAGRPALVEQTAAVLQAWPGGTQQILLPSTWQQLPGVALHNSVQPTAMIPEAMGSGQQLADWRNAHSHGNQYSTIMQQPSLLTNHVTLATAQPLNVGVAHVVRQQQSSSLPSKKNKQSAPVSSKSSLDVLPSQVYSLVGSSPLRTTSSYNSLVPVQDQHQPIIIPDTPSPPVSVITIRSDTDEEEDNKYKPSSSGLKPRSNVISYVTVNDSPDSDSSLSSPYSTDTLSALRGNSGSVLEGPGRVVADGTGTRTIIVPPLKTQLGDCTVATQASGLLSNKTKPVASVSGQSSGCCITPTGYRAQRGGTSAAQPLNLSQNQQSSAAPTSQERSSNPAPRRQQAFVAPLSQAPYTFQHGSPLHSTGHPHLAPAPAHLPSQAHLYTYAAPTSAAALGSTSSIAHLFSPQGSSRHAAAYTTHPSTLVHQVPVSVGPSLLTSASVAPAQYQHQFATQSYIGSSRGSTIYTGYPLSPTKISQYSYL

N#CCc1ccc(Nc2nc(NCCCN)cc(Nc3cc(C4CC4)[nH]n3)n2)cc1 [KAM]
median Log10 fold change (HIPK1; 0.001 uM KAM): 0.007007 | median Log10 fold change (HIPK1; 0.01 uM KAM): -0.007344 | median Log10 fold change (HIPK1; 0.1 uM KAM): -0.151 | median Log10 fold change (HIPK1; 1 uM KAM): -0.3582 | median Log10 fold change (HIPK1; 10 uM KAM): -0.4749 | IC50 (HIPK1; [1]): 770 nM | median Log10 fold change (LATS2; 0.001 uM KAM): 0.01099 | median Log10 fold change (LATS2; 0.01 uM KAM): -0.05599 | median Log10 fold change (LATS2; 0.1 uM KAM): -0.2153 | median Log10 fold change (LATS2; 1 uM KAM): -0.4993 | median Log10 fold change (LATS2; 10 uM KAM): -0.5621 | IC50 (LATS2; [1]): 251 nM | median Log10 fold change (MAP3K1; 0.001 uM KAM): -0.0387 | median Log10 fold change (MAP3K1; 0.01 uM KAM): -0.001908 | median Log10 fold change (MAP3K1; 0.1 uM KAM): -0.0773 | median Log10 fold change (MAP3K1; 1 uM KAM): -0.1722 | median Log10 fold change (MAP3K1; 10 uM KAM): -0.3697 | IC50 (MAP3K1; [1]): 4530 nM | IC50 (PBK; [2]): > 10000 nM | 0.001 uM KAM (PBK; relative to 0 uM KAM = 0): 0.04398 | 0.01 uM KAM (PBK; relative to 0 uM KAM = 0): 0.009269 | 0.1 uM KAM (PBK; relative to 0 uM KAM = 0): 0.0383 | 1 uM KAM (PBK; relative to 0 uM KAM = 0): 0.01738 | 10 uM KAM (PBK; relative to 0 uM KAM = 0): 0.0482 | IC50 (TRRAP; [2]): > 10000 nM | 0.001 uM KAM (TRRAP; relative to 0 uM KAM = 0): -0.07186 | 0.01 uM KAM (TRRAP; relative to 0 uM KAM = 0): 0.02458 | 0.1 uM KAM (TRRAP; relative to 0 uM KAM = 0): 0.0008026 | 1 uM KAM (TRRAP; relative to 0 uM KAM = 0): 0.06144 | 10 uM KAM (TRRAP; relative to 0 uM KAM = 0): -0.07955
